# Data taken from patent US7312240B2, “Conformationally constrained paclitaxel analogs and their use as anticancer and anti-Alzheimers agents” (Virginia Tech Intellectual Properties, Inc., priority 2004, dated 2007).
# Columns and labels:
# purified tubulin = settings: for EC50: read-out: ED50, Tb polymerization, Tubulin concentration 5 μM
# GDP-tubulin = assay: Critical concentration determination of tubulin assembly; type: biochemical; settings: Taxoid concentration 10 μM; 37° C., PME buffer, 4% DMSO
# Procedure: Critical Concentration Determination. The critical concentration of tubulin in the presence of 10 μM Taxol or Taxol analog was determined from assembly experiments performed at 37° C. with GDP-tubulin in PME buffer (100 mM PIPES, 2 mM MgSO4, 1 mM EGTA, pH=6.90) containing 4% DMSO. The extent of assembly was measured at different tubulin concentrations (0.5-6 μM) by light scattering (apparent absorption at 350 nm). Critical concentrations were calculated from the x-intercepts of plots of apparent A350 nm VS. tubulin concentration.
# [1] = test system: Taxol binding site on crosslinked microtubules (polymerized tubulin); assay: Competition binding with fluorescent Taxol N-AB-PT; settings: for Inhibit binding F-Taxol: 10 μM Taxol or Taxoid, 5 μM N-AB-PT, 5 μM crosslinked microtubules; for competition experiment with fluorescent Taxol, compared with Taxol/PTX: N-AB-PT 5 μM, increasing competitor (0-30 μM), FIG. 14
# Procedure: Competition Binding Experiments. The relative affinities of Taxol and derivatives for polymerized tubulin were assessed by competition assays. Crosslinked microtubules were prepared in glycerol assembly buffer (10 mM phosphate, 1 mM EGTA, 0.1 mM GTP 3.4 M glycerol, pH 6.9) as described by Andreu and Barasoain. Prior to use, the crosslinked microtubules were dialyzed against PME buffer for 16-18 hr. Crosslinked microtubules (5 μM) and the fluorescent Taxol derivative N-AB-PT (15, 5 μM) in PME buffer were incubated for 20 min at room temperature with 10 μM of Taxol or the Taxoid. The fluorescence emission intensity at 412 nm of each sample was recorded using a Jobin-Yvon Horiba Fluoromax-3 spectrofluorometer in a 2 mm×10 mm quartz cell (1ex=320 nm) and compared to the emission intensity of the system in the absence of competitor.
# For the fall competition experiment, microtubules, N-AB-PT and varying concentrations of Taxol or 13b (0-30 μM) were treated in the same manner and their emission intensities were measured. The full competition experiment was repeated using pure tubulin assembled by N-AB-PT and identical results were obtained (data not shown).
# PC-3 prostate cell line = assay: Cytotoxicity against PC3 prostate cancer cell line; settings: for IC50(cp)/IC50(tx) PC3: ratio of compound IC50 to Taxol IC50, PC3
# [2] = test system: A2780 ovarian cancer cell line; assay: Cytotoxicity against A2780 ovarian cancer cell line; settings: for IC50(cp)/IC50(tx) A2780: ratio of compound IC50 to Taxol IC50, A2780; for Cytotoxicity (IC50, μg/ml) A2780: Example 2, A2780
smiles,measurement,setting,value
CC(=O)O[C@H]1C(=O)[C@@]2(C)[C@@H]3[C@H](OC(=O)c4ccccc4)[C@]4(O)C[C@H](OC(=O)[C@H](O)[C@@H](NC(=O)c5ccccc5)c5cccc(c5)OC/C=C\CCC(=O)O[C@]35CO[C@@H]5C[C@@H]2O)C(C)=C1C4(C)C [Compound 15e],"tubulin polymerization activity in words, compared to PTX",purified tubulin,comparable
CC(=O)OC1C(=O)C2(C)C(O)CC3OCC34OC(=O)CCCc3ccccc3C(NC(=O)c3ccccc3)C(O)C(=O)OC3CC(O)(C(OC(=O)c5ccccc5)C42)C(C)(C)C1=C3C (stereo not drawn) [Compound 14a],Critical Tb conc.,GDP-tubulin,0.35 ± 0.06 µM
same,Inhibit binding F-Taxol,[1],79%
same,EC50,purified tubulin,210 ± 90 nM
same,"cytotoxicity against PC3 in words, compared with PTX/Taxol",PC-3 prostate cell line,more potent than Taxol
same,IC50(cp)/IC50(tx) PC3,PC-3 prostate cell line,0.67
same,"cytotoxicity against A2780 in words, compared with PTX/Taxol or related analogs",[2]; A2780,more potent than Taxol
same,IC50(cp)/IC50(tx) A2780,[2],0.08
C=CCCC(=O)OC12COC1CC(O)C1(C)C(=O)C(OC(C)=O)C3=C(C)C(OC(=O)C(O)C(NC(=O)c4ccccc4)c4ccccc4OCC=C)CC(O)(C(OC(=O)c4ccccc4)C21)C3(C)C (stereo not drawn) [Compound 13i],"cytotoxicity against A2780 in words, compared with PTX/Taxol or related analogs",[2]; A2780,better cytotoxicites than their macrocyclic counter parts
CC(=O)O[C@H]1C(=O)[C@@]2(C)[C@@H]3[C@H](OC(=O)c4ccccc4)[C@]4(O)C[C@H](OC(=O)[C@H](O)[C@@H](NC(=O)c5ccccc5)c5ccccc5C/C=C\C(=O)O[C@]35CO[C@@H]5C[C@@H]2O)C(C)=C1C4(C)C [Compound 13a],Critical Tb conc.,GDP-tubulin,0.53 ± 0.07 µM
same,Inhibit binding F-Taxol,[1],72%
same,EC50,purified tubulin,300 ± 90 nM
same,"cytotoxicity against PC3 in words, compared with PTX/Taxol",PC-3 prostate cell line,slightly more cytotoxic than Taxol
same,IC50(cp)/IC50(tx) PC3,PC-3 prostate cell line,0.69
same,"cytotoxicity against A2780 in words, compared with PTX/Taxol or related analogs",[2]; A2780,approximately twenty times more potent than Taxol
same,fold more potent than previous best analog 15,[2]; A2780,approximately 300 fold
same,IC50(cp)/IC50(tx) A2780,[2],0.045
CC(=O)O[C@H]1C(=O)[C@@]2(C)[C@@H]3[C@H](OC(=O)c4ccccc4)[C@]4(O)C[C@H](OC(=O)[C@H](O)[C@@H](NC(=O)c5ccccc5)c5ccccc5OCCCCC(=O)O[C@]35CO[C@@H]5C[C@@H]2O)C(C)=C1C4(C)C [Compound 16c],"cytotoxicity against PC3 in words, compared with PTX/Taxol",PC-3 prostate cell line,more or less equal cytotoxicity
same,"cytotoxicity against A2780 in words, compared with PTX/Taxol or related analogs",[2]; A2780,more or less equal cytotoxicity
C=CC(=O)O[C@@]12CO[C@@H]1C[C@H](O)[C@@]1(C)C(=O)[C@H](OC(C)=O)C3=C(C)[C@@H](OC(=O)[C@H](O)[C@@H](NC(=O)c4ccccc4)c4ccccc4O/C=C\C)C[C@@](O)([C@@H](OC(=O)c4ccccc4)C12)C3(C)C (stereo partly drawn) [Compound 12b],EC50,purified tubulin,1020 ± 370 nM
same,"cytotoxicity against PC3 in words, compared with PTX/Taxol",PC-3 prostate cell line,over two orders of magnitude less cytotoxic
same,IC50(cp)/IC50(tx) PC3,PC-3 prostate cell line,150
same,"cytotoxicity against A2780 in words, compared with PTX/Taxol or related analogs",[2]; A2780,over three orders of magnitude less cytotoxic
same,IC50(cp)/IC50(tx) A2780,[2],1190
CC(=O)O[C@H]1C(=O)[C@@]2(C)[C@@H]3[C@H](OC(=O)c4ccccc4)[C@]4(O)C[C@H](OC(=O)[C@H](O)[C@@H](NC(=O)c5ccccc5)c5ccccc5OCC/C=C/C(=O)O[C@]35CO[C@@H]5C[C@@H]2O)C(C)=C1C4(C)C [Compound 15c],"cytotoxicity against PC3 in words, compared with PTX/Taxol",PC-3 prostate cell line,more or less equal cytotoxicity
same,"cytotoxicity against A2780 in words, compared with PTX/Taxol or related analogs",[2]; A2780,more or less equal cytotoxicity
C=CCOc1ccccc1C(NC(=O)c1ccccc1)C(O)C(=O)OC1CC2(O)C(OC(=O)c3ccccc3)C3C4(OC(=O)C=C)COC4CC(O)C3(C)C(=O)C(OC(C)=O)C(=C1C)C2(C)C (stereo not drawn) [Compound 13c],"cytotoxicity against PC3 in words, compared with PTX/Taxol",PC-3 prostate cell line,almost inactive
same,"cytotoxicity against A2780 in words, compared with PTX/Taxol or related analogs",[2]; A2780,almost inactive
"CC(=O)O[C@H]1C(=O)[C@@]2(C)[C@H]([C@H](OC(=O)c3ccccc3)[C@]3(O)C[C@H](OC(=O)[C@H](O)[C@@H](NC(=O)c4ccccc4)c4ccccc4)C(C)=C1C3(C)C)[C@]1(OC(C)=O)CO[C@@H]1C[C@@H]2O [Taxol, Paclitaxel]",Critical Tb conc.,GDP-tubulin,1.8 ± 0.30 µM
same,Inhibit binding F-Taxol,[1],26%
same,EC50,purified tubulin,500 ± 140 nM
same,"Cytotoxicity (IC50, μg/ml) A2780",[2],0.02 µg/mL
CC(=O)O[C@H]1C(=O)[C@@]2(C)[C@@H]3[C@H](OC(=O)c4ccccc4)[C@]4(O)C[C@H](OC(=O)[C@H](O)[C@@H](NC(=O)c5ccccc5)c5ccccc5OC/C=C/C(=O)O[C@]35CO[C@@H]5C[C@@H]2O)C(C)=C1C4(C)C [Compound 15b],"inhibition of binding of fluorescent taxol, compared with paclitaxel, in words",[1],better than paclitaxel
same,"competition experiment with fluorescent Taxol, compared with Taxol/PTX",[1],identical in all respect to PTX
same,"tubulin polymerization activity in words, compared to PTX",purified tubulin,superior to PTX
same,"cytotoxicity against PC3 in words, compared with PTX/Taxol",PC-3 prostate cell line,two fold more cytotoxicity than PTX
same,"cytotoxicity against A2780 in words, compared with PTX/Taxol or related analogs",[2]; A2780,more or less equal cytotoxicity
C=CCCC(=O)OC12COC1CC(O)C1(C)C(=O)C(OC(C)=O)C3=C(C)C(OC(=O)C(O)C(NC(=O)c4ccccc4)c4cccc(C=C)c4)CC(O)(C(OC(=O)c4ccccc4)C21)C3(C)C (stereo not drawn) [Compound 13h],"cytotoxicity against A2780 in words, compared with PTX/Taxol or related analogs",[2]; A2780,better cytotoxicites than their macrocyclic counter parts
CC(=O)O[C@H]1C(=O)[C@@]2(C)[C@@H]3[C@H](OC(=O)c4ccccc4)[C@]4(O)C[C@H](OC(=O)[C@H](O)[C@@H](NC(=O)c5ccccc5)c5cccc(c5)/C=C\CCC(=O)O[C@]35CO[C@@H]5C[C@@H]2O)C(C)=C1C4(C)C [Compound 15f],"tubulin polymerization activity in words, compared to PTX",purified tubulin,comparable
CC(=O)OC1C(=O)C2(C)C(O)CC3OCC34OC(=O)CCCOc3ccccc3C(NC(=O)c3ccccc3)C(O)C(=O)OC3CC(O)(C(OC(=O)c5ccccc5)C42)C(C)(C)C1=C3C (stereo not drawn) [Compound 14b],Critical Tb conc.,GDP-tubulin,1.3 ± 0.33 µM
same,Inhibit binding F-Taxol,[1],7%
same,EC50,purified tubulin,830 ± 190 nM
same,"cytotoxicity against PC3 in words, compared with PTX/Taxol",PC-3 prostate cell line,slightly less potent
same,IC50(cp)/IC50(tx) PC3,PC-3 prostate cell line,3.3
same,"cytotoxicity against A2780 in words, compared with PTX/Taxol or related analogs",[2]; A2780,slightly less potent
same,IC50(cp)/IC50(tx) A2780,[2],1.2
CC(=O)O[C@H]1C(=O)[C@@]2(C)[C@@H]3[C@H](OC(=O)c4ccccc4)[C@]4(O)C[C@H](OC(=O)[C@H](O)[C@@H](NC(=O)c5ccccc5)c5cccc(c5)CCCCC(=O)O[C@]35CO[C@@H]5C[C@@H]2O)C(C)=C1C4(C)C [Compound 16f],"cytotoxicity against A2780 in words, compared with PTX/Taxol or related analogs",[2]; A2780,much less than the unsaturated 15e and 15f
CC(=O)O[C@H]1C(=O)[C@@]2(C)[C@@H]3[C@H](OC(=O)c4ccccc4)[C@]4(O)C[C@H](OC(=O)[C@H](O)[C@@H](NC(=O)c5ccccc5)c5cccc(c5)OCCCCCC(=O)O[C@]35CO[C@@H]5C[C@@H]2O)C(C)=C1C4(C)C [Compound 16e],"cytotoxicity against A2780 in words, compared with PTX/Taxol or related analogs",[2]; A2780,much less than the unsaturated 15e and 15f
O=C1/C=C/COc2cccc(c2)[C@H](NC(=O)c2ccccc2)[C@@H](O)C(=O)OC2CC3CC(CO1)C(OC(=O)c1ccccc1)C(C3)C2 (stereo partly drawn) [Compound 20b],"cytotoxicity against A2780 in words, compared with PTX/Taxol or related analogs",[2]; A2780,less active than 18 and 19
same,"Cytotoxicity (IC50, μg/ml) A2780",[2],>100 µg/mL
CC(=O)O[C@H]1C(=O)[C@@]2(C)[C@@H]3[C@H](OC(=O)c4ccccc4)[C@]4(O)C[C@H](OC(=O)[C@H](O)[C@@H](NC(=O)c5ccccc5)c5ccccc5/C=C/CC(=O)O[C@]35CO[C@@H]5C[C@@H]2O)C(C)=C1C4(C)C [Compound 15J],"inhibition of binding of fluorescent taxol, compared with paclitaxel, in words",[1],better than paclitaxel
same,"tubulin polymerization activity in words, compared to PTX",purified tubulin,superior to PTX
same,fold more cytotoxicity compared to PTX against PC3,PC-3 prostate cell line; PC3 cell line,2 fold
same,fold more cytotoxicity compared to PTX,"[2]; A2780 cell line, cell line not named",6 fold
CC(=O)O[C@H]1C(=O)[C@@]2(C)[C@@H]3[C@H](OC(=O)c4ccccc4)[C@]4(O)C[C@H](OC(=O)[C@H](O)[C@@H](NC(=O)c5ccccc5)c5ccccc5OC/C=C/C(=O)O[C@]35CO[C@@H]5C[C@@H]2O)C(C)=C1C4(C)C [Compound 13b],Critical Tb conc.,GDP-tubulin,1.2 ± 0.24 µM
same,Inhibit binding F-Taxol,[1],30%
same,"competition experiment with fluorescent Taxol, compared with Taxol/PTX",[1],equal affinity
same,EC50,purified tubulin,280 ± 110 nM
same,"cytotoxicity against PC3 in words, compared with PTX/Taxol",PC-3 prostate cell line,equipotent with Taxol
same,IC50(cp)/IC50(tx) PC3,PC-3 prostate cell line,1.0
same,"cytotoxicity against A2780 in words, compared with PTX/Taxol or related analogs",[2]; A2780,equipotent with Taxol
same,IC50(cp)/IC50(tx) A2780,[2],0.97
CC(=O)O[C@H]1C(=O)[C@@]2(C)[C@@H]3[C@H](OC(=O)c4ccccc4)[C@]4(O)C[C@H](OC(=O)[C@H](O)[C@@H](NC(=O)c5ccccc5)c5ccccc5OCCCC(=O)O[C@]35CO[C@@H]5C[C@@H]2O)C(C)=C1C4(C)C [Compound 16b],"inhibition of binding of fluorescent taxol, compared with paclitaxel, in words",[1],better than paclitaxel
same,"tubulin polymerization activity in words, compared to PTX",purified tubulin,superior to PTX
same,"cytotoxicity against PC3 in words, compared with PTX/Taxol",PC-3 prostate cell line,more or less equal cytotoxicity
same,"cytotoxicity against A2780 in words, compared with PTX/Taxol or related analogs",[2]; A2780,more or less equal cytotoxicity
